Data taken from patent US11306084B2, “Integrin antagonists” (Saint Louis University, priority 2016, dated 2022).
Where a name gives a salt, the structure may show the parent alone.

What was measured:
Format in all cases: binding
[1] = biological target: T1, Recombinant human integrin ανβ8 (Homo sapiens, UniProt P06756+P26012); assay: Solid Phase Receptor Assay (SPRA) for ανβ8 function; details: plate-bound human LAP; read-out: αvβ8 SPRA IC50
T1 construct: purchased R&D Systems 4135-AV

[2] = biological target: T2, Recombinant human integrin ανβ5 (Homo sapiens, UniProt P06756+P18084); assay: Solid Phase Receptor Assay (SPRA) for ανβ5 function; details: plate-bound human vitronectin; read-out: αvβ5 SPRA IC50
T2 construct: purchased R&D Systems 2528-AV

[3] = biological target: T3, Recombinant human integrin α5β1 (Homo sapiens, UniProt P05556+P08648); assay: Solid Phase Receptor Assay (SPRA) for α5β1 function; details: plate-bound human fibronectin
T3 construct: purchased R&D Systems 3230-A5

[4] = biological target: T4, Recombinant human integrin ανβ6 (Homo sapiens, UniProt P06756+P18564); assay: Solid Phase Receptor Assay (SPRA) for ανβ6 function; details: plate-bound human LAP; read-out: αvβ6 SPRA IC50
T4 construct: purchased R&D Systems 3817-AV
T4 sequence (P06756 31-992 limits assumed): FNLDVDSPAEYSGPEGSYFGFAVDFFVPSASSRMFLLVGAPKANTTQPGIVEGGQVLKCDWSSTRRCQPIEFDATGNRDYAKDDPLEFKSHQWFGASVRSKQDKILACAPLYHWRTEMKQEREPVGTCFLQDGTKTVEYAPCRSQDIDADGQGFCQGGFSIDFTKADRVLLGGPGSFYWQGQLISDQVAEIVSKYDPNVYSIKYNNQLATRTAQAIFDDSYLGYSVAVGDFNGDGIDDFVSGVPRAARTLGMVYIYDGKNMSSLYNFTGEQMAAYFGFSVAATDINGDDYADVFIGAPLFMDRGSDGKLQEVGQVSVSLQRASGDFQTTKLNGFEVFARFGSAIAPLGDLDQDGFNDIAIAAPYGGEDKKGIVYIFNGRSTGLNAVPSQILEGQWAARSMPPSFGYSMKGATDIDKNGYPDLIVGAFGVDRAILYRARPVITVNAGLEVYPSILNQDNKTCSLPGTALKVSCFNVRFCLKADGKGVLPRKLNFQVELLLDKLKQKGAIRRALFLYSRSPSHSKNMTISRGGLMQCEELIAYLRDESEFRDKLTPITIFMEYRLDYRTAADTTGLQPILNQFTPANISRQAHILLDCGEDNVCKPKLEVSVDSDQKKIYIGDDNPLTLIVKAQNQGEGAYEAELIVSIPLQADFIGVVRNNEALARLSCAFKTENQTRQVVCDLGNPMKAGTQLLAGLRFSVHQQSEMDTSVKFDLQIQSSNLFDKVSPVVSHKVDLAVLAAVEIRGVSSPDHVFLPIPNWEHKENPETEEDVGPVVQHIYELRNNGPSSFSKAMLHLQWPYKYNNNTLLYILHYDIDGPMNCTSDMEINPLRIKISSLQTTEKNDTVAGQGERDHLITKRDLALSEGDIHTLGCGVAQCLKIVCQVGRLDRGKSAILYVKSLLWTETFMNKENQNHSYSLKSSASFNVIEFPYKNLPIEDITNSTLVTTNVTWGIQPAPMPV
T4 sequence (P18564 22-707 limits assumed): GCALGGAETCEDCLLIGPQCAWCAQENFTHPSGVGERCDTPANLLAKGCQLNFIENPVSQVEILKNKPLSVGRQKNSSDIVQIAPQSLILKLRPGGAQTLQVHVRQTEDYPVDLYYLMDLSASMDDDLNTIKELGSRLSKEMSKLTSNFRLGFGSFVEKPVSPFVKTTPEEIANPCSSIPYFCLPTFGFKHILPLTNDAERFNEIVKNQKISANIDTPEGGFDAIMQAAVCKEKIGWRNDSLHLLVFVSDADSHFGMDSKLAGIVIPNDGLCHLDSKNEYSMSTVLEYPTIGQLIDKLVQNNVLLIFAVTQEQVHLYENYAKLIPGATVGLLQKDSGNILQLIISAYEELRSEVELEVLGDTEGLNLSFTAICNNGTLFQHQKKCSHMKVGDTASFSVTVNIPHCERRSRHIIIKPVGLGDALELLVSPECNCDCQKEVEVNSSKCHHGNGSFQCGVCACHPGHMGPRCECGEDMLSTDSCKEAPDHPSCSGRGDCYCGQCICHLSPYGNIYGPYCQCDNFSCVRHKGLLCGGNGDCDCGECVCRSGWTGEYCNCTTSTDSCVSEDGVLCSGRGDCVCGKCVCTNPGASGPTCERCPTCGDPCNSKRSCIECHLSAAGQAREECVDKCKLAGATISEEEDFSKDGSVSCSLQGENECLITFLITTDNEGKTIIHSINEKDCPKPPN

T2 sequence (P06756 31-992 limits assumed): as the sequence (P06756 31-992 limits assumed) above
T2 sequence (P18084 24-719 limits assumed): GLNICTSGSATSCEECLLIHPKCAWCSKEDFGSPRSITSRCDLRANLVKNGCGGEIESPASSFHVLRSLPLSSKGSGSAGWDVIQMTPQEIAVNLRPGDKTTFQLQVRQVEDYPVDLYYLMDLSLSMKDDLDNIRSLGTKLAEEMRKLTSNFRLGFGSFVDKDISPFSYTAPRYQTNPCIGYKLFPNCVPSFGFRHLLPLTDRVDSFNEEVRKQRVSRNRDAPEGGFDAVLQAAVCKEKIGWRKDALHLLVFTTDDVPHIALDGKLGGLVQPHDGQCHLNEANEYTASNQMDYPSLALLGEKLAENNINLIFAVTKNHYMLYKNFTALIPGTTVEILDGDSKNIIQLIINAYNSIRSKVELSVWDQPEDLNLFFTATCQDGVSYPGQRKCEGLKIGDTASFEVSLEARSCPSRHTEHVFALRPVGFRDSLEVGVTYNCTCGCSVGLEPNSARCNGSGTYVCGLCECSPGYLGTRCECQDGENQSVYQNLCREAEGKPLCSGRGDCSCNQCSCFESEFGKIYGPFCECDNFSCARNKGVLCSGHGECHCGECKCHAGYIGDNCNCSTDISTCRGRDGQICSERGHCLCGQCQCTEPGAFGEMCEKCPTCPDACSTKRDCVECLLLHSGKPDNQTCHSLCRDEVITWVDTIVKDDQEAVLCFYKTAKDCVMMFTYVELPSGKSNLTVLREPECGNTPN
T1 sequence (P06756 31-992 limits assumed): as the sequence (P06756 31-992 limits assumed) above
T1 sequence (P26012 43-684 limits assumed): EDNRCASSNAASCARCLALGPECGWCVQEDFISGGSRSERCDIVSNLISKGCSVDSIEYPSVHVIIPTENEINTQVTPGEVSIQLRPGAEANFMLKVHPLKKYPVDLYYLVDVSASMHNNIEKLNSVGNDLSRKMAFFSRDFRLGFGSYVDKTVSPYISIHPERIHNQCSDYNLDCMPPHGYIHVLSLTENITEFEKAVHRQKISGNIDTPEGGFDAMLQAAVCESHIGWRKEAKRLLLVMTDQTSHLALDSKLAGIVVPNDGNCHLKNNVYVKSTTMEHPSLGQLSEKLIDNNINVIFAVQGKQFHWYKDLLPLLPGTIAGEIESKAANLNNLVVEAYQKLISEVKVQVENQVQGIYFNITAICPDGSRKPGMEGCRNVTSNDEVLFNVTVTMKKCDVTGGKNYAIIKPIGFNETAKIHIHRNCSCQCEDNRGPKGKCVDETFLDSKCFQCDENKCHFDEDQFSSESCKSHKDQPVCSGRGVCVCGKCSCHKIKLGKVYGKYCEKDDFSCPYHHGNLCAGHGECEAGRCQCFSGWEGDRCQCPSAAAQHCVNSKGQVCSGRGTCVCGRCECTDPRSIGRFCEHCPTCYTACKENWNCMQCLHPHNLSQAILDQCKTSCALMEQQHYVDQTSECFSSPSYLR
T3 sequence (P08648 42-995 limits assumed): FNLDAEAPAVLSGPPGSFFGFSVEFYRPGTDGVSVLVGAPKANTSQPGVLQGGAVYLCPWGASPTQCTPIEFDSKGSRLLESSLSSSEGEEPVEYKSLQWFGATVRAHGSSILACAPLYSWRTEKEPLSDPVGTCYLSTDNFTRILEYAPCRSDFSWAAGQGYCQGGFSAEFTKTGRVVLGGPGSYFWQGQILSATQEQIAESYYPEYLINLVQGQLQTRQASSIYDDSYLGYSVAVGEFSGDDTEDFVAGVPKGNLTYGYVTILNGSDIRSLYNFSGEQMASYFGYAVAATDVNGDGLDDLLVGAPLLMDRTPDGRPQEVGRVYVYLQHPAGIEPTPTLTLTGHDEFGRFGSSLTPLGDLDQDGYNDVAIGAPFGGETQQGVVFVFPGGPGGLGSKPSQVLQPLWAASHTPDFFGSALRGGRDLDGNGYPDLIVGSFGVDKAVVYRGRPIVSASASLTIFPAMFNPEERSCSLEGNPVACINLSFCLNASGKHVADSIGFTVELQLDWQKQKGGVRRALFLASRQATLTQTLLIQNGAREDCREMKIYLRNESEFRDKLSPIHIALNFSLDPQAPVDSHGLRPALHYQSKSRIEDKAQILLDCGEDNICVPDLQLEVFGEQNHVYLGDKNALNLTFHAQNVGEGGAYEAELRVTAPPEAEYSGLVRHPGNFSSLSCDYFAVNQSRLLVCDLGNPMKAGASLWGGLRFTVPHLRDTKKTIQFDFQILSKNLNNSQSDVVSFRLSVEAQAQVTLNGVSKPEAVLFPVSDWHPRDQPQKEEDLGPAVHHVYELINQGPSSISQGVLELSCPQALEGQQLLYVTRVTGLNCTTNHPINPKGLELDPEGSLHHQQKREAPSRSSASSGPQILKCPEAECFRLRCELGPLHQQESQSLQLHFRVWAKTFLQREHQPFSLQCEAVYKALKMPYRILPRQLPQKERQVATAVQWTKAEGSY
T3 sequence (P05556 21-728 limits assumed): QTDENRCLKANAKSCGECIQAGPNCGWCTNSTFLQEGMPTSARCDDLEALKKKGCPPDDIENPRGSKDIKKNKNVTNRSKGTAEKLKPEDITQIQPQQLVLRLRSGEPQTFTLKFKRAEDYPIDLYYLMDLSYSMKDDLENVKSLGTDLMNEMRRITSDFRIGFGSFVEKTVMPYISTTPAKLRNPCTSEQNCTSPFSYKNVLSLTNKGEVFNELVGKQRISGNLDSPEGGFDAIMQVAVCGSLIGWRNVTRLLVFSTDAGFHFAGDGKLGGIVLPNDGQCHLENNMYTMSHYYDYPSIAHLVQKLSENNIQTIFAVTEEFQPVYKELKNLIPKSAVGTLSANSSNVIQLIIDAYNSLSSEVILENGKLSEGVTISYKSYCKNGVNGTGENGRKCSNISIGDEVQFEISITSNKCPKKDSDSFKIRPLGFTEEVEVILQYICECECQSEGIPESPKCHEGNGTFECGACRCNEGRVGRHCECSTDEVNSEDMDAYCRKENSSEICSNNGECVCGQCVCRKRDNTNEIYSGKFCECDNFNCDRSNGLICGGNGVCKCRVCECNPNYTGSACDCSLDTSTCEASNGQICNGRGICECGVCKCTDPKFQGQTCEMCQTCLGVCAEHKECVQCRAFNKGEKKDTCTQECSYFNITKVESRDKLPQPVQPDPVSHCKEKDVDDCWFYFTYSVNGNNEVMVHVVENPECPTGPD

SMILES | IC50 [1] [nM] | IC50 [2] [nM] | IC50 [3] [nM] | IC50 [4] [nM]
Cn1nc(CC(CC(=O)O)c2ccc(F)c(C#N)c2)cc1OCCc1ccc2c(n1)NCCC2 (stereo not drawn) [Example 7, 3-(3-cyano-4-fluorophenyl)-4-(1-methyl-5-(2-(5,6,7,8-tetrahydro-1,8-naphthyridin-2-yl)ethoxy)-1H-pyrazol-3-yl)butanoic Acid] | 23 | 0.6 | 224 | 50
Cn1nc(CC(CC(=O)O)c2cc(Cl)cc(C(C)(C)C(F)(F)F)c2)cc1OCCc1ccc2c(n1)NCCC2 (stereo not drawn) [Example 27, 3-(3-chloro-5-(1,1,1-trifluoro-2-methylpropan-2-yl)phenyl)-4-(1-methyl-5-(2-(5,6,7,8-tetrahydro-1,8-naphthyridin-2-yl)ethoxy)-1H-pyrazol-3-yl)butanoic Acid] | 11 | 0.5 | 18 | 47
Cn1nc(CC(CC(=O)O)c2cc(Br)cc(C(F)(F)F)c2)cc1OCCc1ccc2c(n1)NCCC2 (stereo not drawn) [Example 10, 3-(3-bromo-5-(trifluoromethyl)phenyl)-4-(1-methyl-5-(2-(5,6,7,8-tetrahydro-1,8-naphthyridin-2-yl)ethoxy)-1H-pyrazol-3-yl)butanoic Acid] | 12 | 1 | 120 | 25
Cn1nc(CC(CC(=O)O)c2cc(C#N)cc(C3(C(F)F)CC3)c2)cc1OCCc1ccc2c(n1)NCCC2 (stereo not drawn) [Example 20, 3-(3-cyano-5-(1-(difluoromethyl)cyclopropyl)phenyl)-4-(1-methyl-5-(2-(5,6,7,8-tetrahydro-1,8-naphthyridin-2-yl)ethoxy)-1H-pyrazol-3-yl)butanoic Acid] | 14 | 0.2 | 5.5 | 17
Cn1nc(CC(CC(=O)O)c2cc(Br)cc(C3(C(F)F)CC3)c2)cc1OCCc1ccc2c(n1)NCCC2 (stereo not drawn) [Example 19, 3-(3-bromo-5-(1-(difluoromethyl)cyclopropyl)phenyl)-4-(1-methyl-5-(2-(5,6,7,8-tetrahydro-1,8-naphthyridin-2-yl)ethoxy)-1H-pyrazol-3-yl)butanoic Acid] | 8.5 | 1.2 | 15 | 45
Cn1nc(CC(CC(=O)O)c2cc(C(C)(C)C)cc(C(C)(C)C)c2)cc1OCCc1ccc2c(n1)NCCC2 (stereo not drawn) [Example 18, 3-(3,5-di-tert-butylphenyl)-4-[1-methyl-5-[2-(5,6,7,8-tetrahydro-1,8-naphthyridin-2-yl)ethoxyl]pyrazol-3-yl]butanoic Acid] | 85 | 180 | 6.4 | 620
Cn1nc(CC(CC(=O)O)c2cc(F)cc(C(C)(C)C(F)(F)F)c2)cc1OCCc1ccc2c(n1)NCCC2 (stereo not drawn) [Example 24, 3-(3-fluoro-5-(1,1,1-trifluoro-2-methylpropan-2-yl)phenyl)-4-(1-methyl-5-(2-(5,6,7,8-tetrahydro-1,8-naphthyridin-2-yl)ethoxy)-1H-pyrazol-3-yl)butanoic Acid] | 89 | 0.2 | 15 | 110
COc1cc(C(C)(C)C)ccc1C(CC(=O)O)Cc1cc(OCCc2ccc3c(n2)NCCC3)n(C)n1 (stereo not drawn) [Example 34, 3-(4-(tert-butyl)-2-methoxyphenyl)-4-(1-methyl-5-(2-(5,6,7,8-tetrahydro-1,8-naphthyridin-2-yl)ethoxy)-1H-pyrazol-3-yl)butanoic Acid] | 42 | 2.3 | 550 | 130
COc1ccc(C#N)cc1C(CC(=O)O)Cc1cc(OCCc2ccc3c(n2)NCCC3)n(C)n1 (stereo not drawn) [Example 46, 3-(5-cyano-2-methoxyphenyl)-4-(1-methyl-5-(2-(5,6,7,8-tetrahydro-1,8-naphthyridin-2-yl)ethoxy)-1H-pyrazol-3-yl)butanoic Acid Trifluoroacetate] | 31 | 1 | 51 | 30
COc1ccc([C@H](CC(=O)O)Cc2cc(OCCc3ccc4c(n3)NCCC4)n(C)n2)cc1F [Example 15, (3S)-3-(3-fluoro-4-methoxyphenyl)-4-(1-methyl-5-(2-(5,6,7,8-tetrahydro-1,8-naphthyridin-2-yl)ethoxy)-1H-pyrazol-3-yl)butanoic Acid] | 90 | 0.3 | 85 | 49
Cn1nc(CC(CC(=O)O)c2ccc3c(c2)OCCO3)cc1OCCc1ccc2c(n1)NCCC2 (stereo not drawn) [Example 1, 3-(2,3-dihydrobenzo[b][1,4]dioxin-6-yl)-4-(1-methyl-5-(2-(5,6,7,8-tetrahydro-1,8-naphthyridin-2-yl)ethoxy)-1H-pyrazol-3-yl)butanoic Acid] | 52 | 0.9 | 229 | 35
Cn1nc(CC(CC(=O)O)c2cc(C(F)(F)F)cc(C3(C(F)F)CC3)c2)cc1OCCc1ccc2c(n1)NCCC2 (stereo not drawn) [Example 23, 3-(3-(1-(difluoromethyl)cyclopropyl)-5-(trifluoromethyl)phenyl)-4-(1-methyl-5-(2-(5,6,7,8-tetrahydro-1,8-naphthyridin-2-yl)ethoxy)-1H-pyrazol-3-yl)butanoic Acid] | 7.9 | 6.5 | 8.8 | 38
Cn1nc(CC(CC(=O)O)c2cccc(C(C)(C)C)c2)cc1OCCc1ccc2c(n1)NCCC2 (stereo not drawn) [Example 49, 3-(3-tert-butylphenyl)-4-[1-methyl-5-[2-(5,6,7,8-tetrahydro-1,8-naphthyridin-2-yl)ethoxy]pyrazol-3-yl]butanoic Acid Trifluoroacetate] | 73 | 0.4 | 12 | 94
Cn1nc(CC(CC(=O)O)c2cc(C(C)(C)C)ccc2O)cc1OCCc1ccc2c(n1)NCCC2 (stereo not drawn) [Example 42, 3-(5-tert-butyl-2-hydroxy-phenyl)-4-[1-methyl-5-[2-(5,6,7,8-tetrahydro-1,8-naphthyridin-2-yl)ethoxyl]pyrazol-3-yl]butanoic Acid Sodium Salt] | 3.1 | 6.6 | 2.1 | 20
Cn1nc(CC(CC(=O)O)c2cc(C#N)cc(C(C)(C)C)c2)cc1OCCc1ccc2c(n1)NCCC2 (stereo not drawn) [Example 17] | 6.9 | 0.4 | 11 | 28
COCC1(c2cc(F)cc(C(CC(=O)O)Cc3cc(OCCc4ccc5c(n4)NCCC5)n(C)n3)c2)CCOCC1 (stereo not drawn) [Example 30, 3-(3-fluoro-5-(4-(methoxymethyl)tetrahydro-2H-pyran-4-yl)phenyl)-4-(1-methyl-5-(2-(5,6,7,8-tetrahydro-1,8-naphthyridin-2-yl)ethoxy)-1H-pyrazol-3-yl)butanoic Acid] | 81 | 0.5 | 12 | 180
COc1ccc(C(CC(=O)O)Cc2cc(OCCc3ccc4c(n3)NCCC4)n(C)n2)cc1F (stereo not drawn) [Example 3, 3-(3-fluoro-4-methoxyphenyl)-4-(1-methyl-5-(2-(5,6,7,8-tetrahydro-1,8-naphthyridin-2-yl)-ethoxy)-1H-pyrazol-3-yl)butanoic Acid] | 114 | 0.4 | 114 | 99
Cn1nc(CC(CC(=O)O)c2ccc(Br)c(F)c2)cc1OCCc1ccc2c(n1)NCCC2 (stereo not drawn) [Example 4, 3-(4-bromo-3-fluorophenyl)-4-(1-methyl-5-(2-(5,6,7,8-tetrahydro-1,8-naphthyridin-2-yl)ethoxy)-1H-pyrazol-3-yl)butanoic Acid] | 79 | 0.5 | 343 | 189
